Measured values as given in patent US20120165346A1, “Compounds and their use as BACE inhibitors” (ASTRAZENECA AB, priority 2010, published 2012).

Experiments:
[1] = tested on: sAPPβ release, SH-SY5Y cells; test: sAPPβ release assay; format: cell-based; settings: Homo sapiens, compounds incubated 17 h
Description: SH-SY5Y cells were cultured in DMEM/F-12 with Glutamax, 10% FCS and 1% non-essential amino acids and cryopreserved and stored at −140° C. at a concentration of 7.5−9.5×10^6 cells per vial. Thaw cells and seed at a conc. of around 10000 cells/well in DMEM/F-12 with Glutamax, 10% FCS and 1% non-essential amino acids to a 384-well tissue culture treated plate, […] cell susp/well. The cell plates were then incubated for 7-24 h at 37° C., 5% CO2. The cell medium was removed, followed by addition of 30 μL compound diluted in DMEM/F-12 with Glutamax, 10% FCS, 1% non-essential amino acids and 1% PeSt to a final conc. of 1% DMSO. The compounds were incubated with the cells for 17 h (overnight) at 37° C., 5% CO2. Meso Scale Discovery (MSD) plates were used for the detection of sAPPβ release. MSD sAPPβ plates were blocked in 1% BSA in Tris wash buffer (40 μL/well) for 1 h on shake at r.t. and washed 1 time in Tris wash buffer (40 μL/well). 20 μL of medium was transferred to the pre-blocked and washed is MSD sAPPβ microplates, and the cell plates were further used in an ATP assay to measure cytotoxicity. The MSD plates were incubated with shaking at r.t. for 2 h and the media discarded. 10 μL detection antibody was added (1 nM) per well followed by incubation with shaking at r.t. for 2 h and then discarded. 40 μL Read Buffer was added per well and the plates were read in a SECTOR Imager.

[2] = target: T1, human β-Secretase (AA 1-AA 460), sBACE-Fc (Homo sapiens, UniProt P56817); test: Diluted TR-FRET assay; format: biochemical; settings: footnote a: diluted FRET assay, 50 times less enzyme, 6.5 h reaction time at r.t.; read-out: IC50 in TR-FRET assay (IC50 from the diluted FRET assay)
T1 construct: soluble part of the human β-Secretase (AA 1-AA 460) was cloned; Fc domain of IgG1; made in house
T1 sequence (P56817 22-460): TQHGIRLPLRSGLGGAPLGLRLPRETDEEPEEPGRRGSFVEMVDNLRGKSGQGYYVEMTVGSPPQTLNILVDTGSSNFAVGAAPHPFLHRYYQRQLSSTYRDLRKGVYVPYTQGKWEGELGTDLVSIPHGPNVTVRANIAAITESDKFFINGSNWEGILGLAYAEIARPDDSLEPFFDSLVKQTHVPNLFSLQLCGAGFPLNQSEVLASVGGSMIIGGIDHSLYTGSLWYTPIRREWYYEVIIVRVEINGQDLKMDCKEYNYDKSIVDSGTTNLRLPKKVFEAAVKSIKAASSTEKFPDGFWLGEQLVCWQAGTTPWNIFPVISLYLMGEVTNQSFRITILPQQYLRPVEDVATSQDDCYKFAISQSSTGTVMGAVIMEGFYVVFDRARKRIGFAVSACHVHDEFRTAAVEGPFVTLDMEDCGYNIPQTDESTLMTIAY
Description: The cDNA for the soluble part of the human β-Secretase (AA 1-AA 460) was cloned using the ASP2-Fc10-1-IRES-GFP-neoK mammalian expression vector. The gene was fused to the Fc domain of IgG1 (affinity tag) and stably cloned into HEK 293 cells.
The robotic systems Biomek FX and Velocity 11 were used for all liquid handling and the enzyme and substrate solutions were kept on ice until they were placed in the robotic system. Enzyme (9 μA) was added to the plate then 1 μA of compound in dimethylsulphoxide was added, mixed and pre-incubated for 10 minutes. Substrate (10 μA) was then added, mixed and the reaction proceeded for 15 minutes at r.t. The reaction was stopped with the addition of Stop solution (7 μl, NaAcetate, pH 9). […] The dimethylsulphoxide control, instead of test compound, defined the 100% activity level and 0% activity was defined by wells lacking enzyme (replaced with reaction buffer).

Structure (SMILES) | IC50 [1] | IC50 [2]
CC#Cc1cncc(-c2cc(C3(c4cc(C)c(=O)n(CC)c4)N=C(N)c4c(F)cccc43)ccn2)c1 (single isomer, unassigned) [Example 26, 5-(3-amino-4-fluoro-1-(5′-(prop-1-ynyl)-2,3′-bipyridin-4-yl)-1H-isoindol-1-yl)-1-ethyl-3-methylpyridin-2(1H)-one] | 0.7 nM | 4 nM
CC#Cc1cncc(-c2cccc(C3(c4cc(C(F)F)c(=O)n(CC)c4)N=C(N)c4c(F)cccc43)c2)c1 (centres unmarked) [Example 23, 5-(3-Amino-4-fluoro-1-(3-(5-(prop-1-ynyl)pyridin-3-yl)phenyl)-1H-isoindol-1-yl)-3-(difluoromethyl)-1-ethylpyridin-2(1H)-one] | 4 nM | 6 nM
CCn1cc(C2(c3cccc(-c4cncnc4)c3)N=C(N)c3c(F)cccc32)cc(C)c1=O (centres unmarked) [Example 6, 5-(3-Amino-4-fluoro-1-(3-(pyrimidin-5-yl)phenyl)-1H-isoindol-1-yl)-1-ethyl-3-methylpyridin-2(1H)-one] | 9 nM | 16 nM
CCn1cc(C2(c3cccc(-c4cncc(F)c4)c3)N=C(N)c3c(F)cccc32)cc(C)c1=O (centres unmarked) [Example 9, 5-(3-Amino-4-fluoro-1-(3-(5-fluoropyridin-3-yl)phenyl)-1H-isoindol-1-yl)-1-ethyl-3-methylpyridin-2(1H)-one] | 4 nM | 13 nM
